System: 3′UTR of fog2 mRNA
Assay: luciferase assay with wild-type or mutated miR-200 target sites of FOG2 3′UTR
Format: cell-based, human
Settings: Hela cell lines, compared to siGFP
Protocol: The inventors examined whether human miR-200 family miRNAs regulate the expression by directly binding to 3′ UTR of fog2 mRNA in the same manner as drosophila miR-8 miRNA regulates the expression by directly binding to 3′ UTR of ush mRNA. Specifically, in order to obtain cDNA of FOG2, represented by SEQ ID: 110, from K562 cell lines, total RNA was extracted using RNeasy mini kit (QIAGEN, US). Then, 1 μg of total RNA and 1 μl of Oligo-dT (Invitrogen, US) were charged with up to 50 μl of distilled water, and placed into SuperScript First-Strand Synthesis System (Invitrogen, US), followed by RT-PCR reaction. […] By using pCK-FOG2, primers noted in Table 8, and QuickChange Site-Directed Mutagenesis kit, one (FOG2 m1, FOG2 m2, FOG2 m3), two ((FOG2 m12, FOG2 m23) or three (FOG2 m123) mutants were introduced into three miR-200 target sites of FOG2 3′UTR. Hela cell lines were transfected with wild-type FOG2(FOG2 wt), FOG2 ml, FOG2 m2, FOG2 m3, FOG2 m12, FOG2 m23 or FOG2 m123, together with renilla luciferase expression vector and synthesized siGFP, miR-141/200a or miR-200b/c/429. Then, the activity of luciferase was measured in the same manner as described in Example 8-2. The synthesized miRNA include a mixture of the same levels of miRNAs including respective seed sequences. […]

Substance: 5′-UAACACUGUCUGGUAACGAUGU-3′ (listed as RNA, chemistry not given here) [miR-200a]
- expression of luciferase, FOG2 3′UTR: suppressed the expression of luciferase, albeit less effectively than the other members did

Substance: 5′-UAACACUGUCUGGUAAAGAUGG-3′ (listed as RNA, chemistry not given here) [miR-141]
- expression of luciferase, FOG2 3′UTR: suppressed the expression of luciferase, albeit less effectively than the other members did
